Data from the NIST ThermoML archive (doi:10.1016/j.tca.2015.06.017).

Experiment: xn = mol fraction of the nth substance listed
Details: Liquid, Vibrating tube method

CCC(C)Cl (stereo unspecified) [2-chlorobutane] + CCCCCCC
mass density [kg/m3]
Details | 303.15 K | 313.15 K
100 kPa, x2 = 0.0524 | 847.91 | 836.56
100 kPa, x2 = 0.1018 | 835.49 | 824.33
100 kPa, x2 = 0.1968 | 813.06 | 802.22
100 kPa, x2 = 0.3006 | 790.36 | 779.88
100 kPa, x2 = 0.4029 | 769.73 | 759.54
100 kPa, x2 = 0.5017 | 751.19 | 741.34
100 kPa, x2 = 0.6008 | 733.91 | 724.36
100 kPa, x2 = 0.7023 | 717.52 | 708.18
100 kPa, x2 = 0.7977 | 703.14 | 694.03
100 kPa, x2 = 0.8986 | 688.99 | 680.16
100 kPa, x2 = 0.952 | 681.86 | 673.13
2000 kPa, x2 = 0.0524 | 850.2 | 839.05
2000 kPa, x2 = 0.1018 | 837.83 | 826.85
2000 kPa, x2 = 0.1968 | 815.38 | 804.68
2000 kPa, x2 = 0.3006 | 792.62 | 782.33
2000 kPa, x2 = 0.4029 | 771.9 | 761.96
2000 kPa, x2 = 0.5017 | 753.34 | 743.67
2000 kPa, x2 = 0.6008 | 736.05 | 726.67
2000 kPa, x2 = 0.7023 | 719.64 | 710.46
2000 kPa, x2 = 0.7977 | 705.19 | 696.31
2000 kPa, x2 = 0.8986 | 691.08 | 682.39
2000 kPa, x2 = 0.952 | 683.95 | 675.34
5000 kPa, x2 = 0.0524 | 853.75 | 842.87
5000 kPa, x2 = 0.1018 | 841.34 | 830.59
5000 kPa, x2 = 0.1968 | 818.82 | 808.31
5000 kPa, x2 = 0.3006 | 795.97 | 785.99
5000 kPa, x2 = 0.4029 | 775.25 | 765.53
5000 kPa, x2 = 0.5017 | 756.66 | 747.19
5000 kPa, x2 = 0.6008 | 739.33 | 730.09
5000 kPa, x2 = 0.7023 | 722.77 | 713.8
5000 kPa, x2 = 0.7977 | 708.3 | 699.58
5000 kPa, x2 = 0.8986 | 694.14 | 685.57
5000 kPa, x2 = 0.952 | 686.97 | 678.46
7000 kPa, x2 = 0.0524 | 856.02 | 845.3
7000 kPa, x2 = 0.1018 | 843.56 | 832.97
7000 kPa, x2 = 0.1968 | 820.99 | 810.78
7000 kPa, x2 = 0.3006 | 798.15 | 788.3
7000 kPa, x2 = 0.4029 | 777.41 | 767.84
7000 kPa, x2 = 0.5017 | 758.81 | 749.48
7000 kPa, x2 = 0.6008 | 741.44 | 732.35
7000 kPa, x2 = 0.7023 | 724.78 | 716.03
7000 kPa, x2 = 0.7977 | 710.27 | 701.8
7000 kPa, x2 = 0.8986 | 696.07 | 687.74
7000 kPa, x2 = 0.952 | 688.88 | 680.62
10000 kPa, x2 = 0.0524 | 859.35 | 848.77
10000 kPa, x2 = 0.1018 | 846.8 | 836.51
10000 kPa, x2 = 0.1968 | 824.17 | 814.23
10000 kPa, x2 = 0.3006 | 801.36 | 791.7
10000 kPa, x2 = 0.4029 | 780.55 | 771.16
10000 kPa, x2 = 0.5017 | 761.91 | 752.73
10000 kPa, x2 = 0.6008 | 744.48 | 735.56
10000 kPa, x2 = 0.7023 | 727.81 | 719.19
10000 kPa, x2 = 0.7977 | 713.22 | 704.84
10000 kPa, x2 = 0.8986 | 699 | 690.69
10000 kPa, x2 = 0.952 | 691.77 | 683.56
20000 kPa, x2 = 0.0524 | 869.52 | 859.69
20000 kPa, x2 = 0.1018 | 857 | 847.28
20000 kPa, x2 = 0.1968 | 834.1 | 824.81
20000 kPa, x2 = 0.3006 | 811.1 | 802.08
20000 kPa, x2 = 0.4029 | 790.07 | 781.34
20000 kPa, x2 = 0.5017 | 771.19 | –
20000 kPa, x2 = 0.6008 | 753.6 | –
20000 kPa, x2 = 0.7023 | 736.87 | –
20000 kPa, x2 = 0.7977 | 722.07 | –
20000 kPa, x2 = 0.8986 | 707.69 | –
20000 kPa, x2 = 0.952 | 700.38 | –
30000 kPa, x2 = 0.0524 | 878.79 | –
30000 kPa, x2 = 0.1018 | 866.11 | –
30000 kPa, x2 = 0.1968 | 843.05 | –
30000 kPa, x2 = 0.3006 | 819.96 | –
30000 kPa, x2 = 0.4029 | 798.75 | –
30000 kPa, x2 = 0.5017 | 779.74 | –
30000 kPa, x2 = 0.6008 | 761.98 | –
30000 kPa, x2 = 0.7023 | 745.03 | –
30000 kPa, x2 = 0.7977 | 730.14 | –
30000 kPa, x2 = 0.8986 | 715.59 | –
30000 kPa, x2 = 0.952 | 708.22 | –
40000 kPa, x2 = 0.0524 | 887.22 | –
40000 kPa, x2 = 0.1018 | 874.41 | –
40000 kPa, x2 = 0.1968 | 851.38 | –
40000 kPa, x2 = 0.3006 | 827.93 | –
40000 kPa, x2 = 0.4029 | 806.62 | –
40000 kPa, x2 = 0.5017 | 787.49 | –
40000 kPa, x2 = 0.6008 | 769.55 | –
40000 kPa, x2 = 0.7023 | 752.43 | –
40000 kPa, x2 = 0.7977 | 737.42 | –
40000 kPa, x2 = 0.8986 | 722.69 | –
40000 kPa, x2 = 0.952 | 715.28 | –
50000 kPa, x2 = 0.0524 | 894.96 | –
50000 kPa, x2 = 0.1018 | 882.16 | –
50000 kPa, x2 = 0.1968 | 858.96 | –
50000 kPa, x2 = 0.3006 | 835.46 | –
50000 kPa, x2 = 0.4029 | 813.98 | –
50000 kPa, x2 = 0.5017 | 794.72 | –
50000 kPa, x2 = 0.6008 | 776.69 | –
50000 kPa, x2 = 0.7023 | 759.44 | –
50000 kPa, x2 = 0.7977 | 744.29 | –
50000 kPa, x2 = 0.8986 | 729.42 | –
50000 kPa, x2 = 0.952 | 721.96 | –
60000 kPa, x2 = 0.0524 | 902.31 | –
60000 kPa, x2 = 0.1018 | 889.34 | –
60000 kPa, x2 = 0.1968 | 866.09 | –
60000 kPa, x2 = 0.3006 | 842.43 | –
60000 kPa, x2 = 0.4029 | 820.82 | –
60000 kPa, x2 = 0.5017 | 801.47 | –
60000 kPa, x2 = 0.6008 | 783.34 | –
60000 kPa, x2 = 0.7023 | 766 | –
60000 kPa, x2 = 0.7977 | 750.71 | –
60000 kPa, x2 = 0.8986 | 735.66 | –
60000 kPa, x2 = 0.952 | 728.17 | –
65000 kPa, x2 = 0.0524 | 905.77 | –
65000 kPa, x2 = 0.1018 | 892.87 | –
65000 kPa, x2 = 0.1968 | 869.57 | –
65000 kPa, x2 = 0.3006 | 845.82 | –
65000 kPa, x2 = 0.4029 | 824.21 | –
65000 kPa, x2 = 0.5017 | 804.75 | –
65000 kPa, x2 = 0.6008 | 786.56 | –
65000 kPa, x2 = 0.7023 | 769.12 | –
65000 kPa, x2 = 0.7977 | 753.9 | –
65000 kPa, x2 = 0.8986 | 738.65 | –
65000 kPa, x2 = 0.952 | 731.1 | –
